The record followed here is patent US8361970B2, “Growth factor binding molecules” (University of South Florida, priority 2000, dated 2013).

Several values for one entry are separate records, joined by “and”; a condition that tells them apart may be missing. Identical values can stand only once.

The subject of one experiment is B16-F10 melanoma. Kind of experiment: B16-F10 melanoma tumor growth in immune-competent mice. Type of experiment: in vivo. As to conditions: immune-competent mouse model.
In experiment [1] the test system is PDGF-BB stimulated DNA synthesis in NIH 3T3 cells. Type of experiment: cell-based. As to conditions: 3 h. The method, then:
Starved NIH 3T3 or NIH 3T3 overexpressing IGFR are treated for 16 hours with indicated concentrations of GFB-111 and either 10 ng/ml PDGF or 50 ng/ml IGF-1, respectively, then labeled for 2 hr (NIH 3T3) or 4 hr (IGFR) with ^3H-thymidine. Cells are then washed in PBS, lysed in 0.1N NaOH and spotted onto glass fiber filters. DNA is precipitated with ice cold ethanol then ^3H-thymidine incorporation quantified by scintillation counting.
The selectivity of PDGF-induced cellular responses, is evaluated by the selectivity of GFB-111 to inhibit growth factor-stimulated DNA synthesis using a [^3H]-thymidine incorporation assay. […] In contrast GFB-111 is ineffective at inhibiting IGF-1-stimulated DNA synthesis at concentrations as high as 100 μM (FIG. 4).

In experiment [2] the target is IGF-1 (insulin-like growth factor-1) (Homo sapiens, UniProt P05019). As to the kind of experiment: Binding to IGF-1 by gel electrophoresis.
In experiment [3] the test system is IGF-1 stimulated IGF-1R tyrosine phosphorylation. Kind of experiment: Inhibition of IGF-1 stimulated IGFR tyrosine phosphorylation in IGFR/3T3 cells. Type of experiment: cell-based. The following applies: 100 μM; IGFR/3T3, IGF-1 stimulated. As to the method: The ability of the GFB library to block the ability of IGF-1 to stimulate the IFG-1 R tyrosine phosphorylation and MAP kinase activation is evaluated using the cell assay described above with IGF-1R/3T3 cells as target cell. […] A preferred embodiment of the invention is a compound that binds to an insulin-like growth factor-1, of the general structure III, wherein R is n-butyl, n-propyl, or benzyl, and X1, X2, X3, and X4 optionally comprise identical cyclic peptide loops of the general structure II, and wherein R1, R2, R3, and R4 are each amino acid side chains that define a tetrapeptide sequence, wherein said tetrapeptide is covalently attached at the amino and carboxy termini of said tetrapeptide to a 3-aminomethyl-5-aminobenzamide linking group.

Experiment [4] concerns HRGβ-activation of Erk1/Erk2. Kind of experiment: HRGβ activation of Erk1/Erk2 in SkBr3 breast carcinoma cells overexpressing ErbB2. The following applies: concentrations as high as 100 μM. It is filed as cell-based, human. As to the method:
(§1) In other experiments, starved NIH 3T3 cells (PDGF-AA, PDGF-BB, aFGF, bFGF), NIH 3T3 cells overexpressing EGFR. IGF-1R or Flk-1 and the human breast carcinoma SkBr3 that overexpresses ErbB2 (HRGβ) are pretreated with GFB-111 (100 μM) for 5 min before 10 min stimulation with the indicated growth factors at the concentrations shown above and aFGF (10 ng/ml), bFGF (50 ng/ml), IGF-1 (50 ng/ml) and HRGβ (10 ng/ml). Cell lysates are then immunoblotted with anti-phospho Erk1/Erk2 as described above.

Experiment [5] relates to angiogenesis in DaOY tumors. Kind of experiment: Angiogenesis: microvessel count in DaOY tumors. Type of experiment: in vivo, nude mice. The method, then: (§2) On the indicated termination day of each nude mouse experiment described above, (see also Table 2), the tumors are extracted and half frozen at −70° C., and half is fixed in 10% neutral buffered formalin for 6 hrs. After fixation the tissue samples are processed into paraffin blocks. Four micrometer-thick tissue sections are obtained from the paraffin blocks and stained with hematoxylin and eosin (H&E) (Richard-Allan Scientific, Kalamazoo, Mich.) using standard histologic techniques. Tissue sections are also subjected to immunostaining for Factor VIII using the avidin biotin peroxidase complex technique (Vectastatin Elite ABC Kit, Vector, Burlingame, Calif.). Rabbit polyclonal FVIII antibody (Von Willebrand Factor, Dako Corporation, Carpinteria, Calif.) is used at 1:400 dilution, following microwave antigen retrieval (4 cycles of 5 minutes each on high in 0.1M citrate buffer).

The subject of a further experiment is rat glioma C6. Kind of experiment: Antitumor efficacy, C6 tumor in nude mice. Type of experiment: in vivo.
A further experiment deals with T1, IGF-1 (Homo sapiens, UniProt P05019).
T1 construct: host or cells: NIH 3T3 cells transfected with the IGF-1R gene carry the receptor
Kind of experiment: Inhibition of [125I]-IGF-1 binding to NIH 3T3 cells overexpressing IGF-1R. As to conditions: 10 μM. The method, then:
(§3) NIH 3T3 (PDGF) or NIH 3T3 cells overexpressing either EGFR (EGF), IGFR (IGF) or Flk-1 (VEGF), are incubated with [^125I]-PDGF, [^125I]-EGF, [^125I]-IGF or [^125I]-VEGF, respectively (50,000 cpm per well) and increasing concentrations of GFB-111 or GFB-116. Cells are incubated at 4° C. for 1-3 h. After discarding media, the cells are washed 3 times with PBS and three times with Tris 25 mM pH 8.0, 1% T-X-100, 10% glycerol, 1% SDS. Lysates plus wash are counted. Excess of cold growth factors is used to obtain non-specific binding levels.
(§4) Whether GFB 111 can block [^125I]-PDGF-BB specific binding in NIH 3T3 cells is determined by pre-treatment of the PDGF-BB with increasing concentrations of GFB-111. FIG. 2C illustrates that in the absence of GFB-111, [^125I]-PDGF-BB is bound by NIH3T3 cells. However, pre-treatment with increasing concentrations of GFB-111, results in a concentration-dependent decrease in PDGF-BB binding.

For experiment [6], the system named is angiogenesis in U87-MG tumors. Kind of experiment: Angiogenesis: Factor VIII immunostaining and microvessel count in U87MG tumors. Type of experiment: in vivo, nude mice. The following applies: for Microvessel count (Mean ± SD) 250X / Microvessel count (Mean ± SD) 400X: U87-MG tumor. The method, then: as §2
Experiment [7] relates to EGF-stimulated EGFR tyrosine phosphorylation and Erk1/Erk2 activation. As to the kind of experiment: EGF-stimulated EGFR tyrosine phosphorylation and Erk1/Erk2 activation in NIH 3T3 cells overexpressing EGFR. It is filed as cell-based. As to conditions: GFB-111 at concentrations as high as 100 μM. As to the method:
Starved NIII 3T3 cells (PDGF-BB and PDGF-AA), NIH 3T3 cells overexpressing either EGFR (EGF) or Flk-1 (VEGF) are pre-treated with the indicated concentrations of GFB-111 for 5 minutes before 10 minutes of stimulation with PDGF-BB (10 ng/ml), PDGF-AA (10 ng/ml), EGF (100 ng/ml) and VEGF (50 ng/ml). Cell lysates are run on SDS-PAGE gels, then transferred to nitrocellulose and Western blotted with anti-phosphotyrosine (4G 10) or anti-phosphorylated Erk1/Erk2 (New England Biolabs).

The target in a further experiment is T2, EGF (Homo sapiens, UniProt P01133).
T2 construct: host or cells: NIH 3T3 cells overexpressing EGFR carry the receptor
As to the kind of experiment: Inhibition of [125I]-EGF binding to NIH 3T3 cells overexpressing EGFR. The following applies: 10 μM. As to the method: as §3, §4

Experiment [8] concerns bFGF-activation of Erk1/Erk2. Kind of experiment: bFGF activation of Erk1/Erk2 in NIH 3T3 cells. The following applies: concentrations as high as 100 μM. It is filed as cell-based. As to the method:
as §1

T2 sequence (P01133 971-1023 limits assumed, species assumed): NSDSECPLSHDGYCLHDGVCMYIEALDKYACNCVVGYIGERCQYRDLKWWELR
T1 sequence (P05019 49-118 limits assumed, species assumed): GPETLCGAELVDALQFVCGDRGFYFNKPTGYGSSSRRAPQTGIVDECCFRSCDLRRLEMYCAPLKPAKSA
Sequence of IGF-1 (insulin-like growth factor-1) (P05019 49-118 limits assumed, species assumed): as above

On to GKGK [GFB-116], for which the “Inhibition of growth of B16-F10 melanoma” value with B16-F10 melanoma is listed as “effective”.
One may read the IC50 as the point on the concentration scale where inhibition reaches its midpoint. Broadly, the % Inhibition is the relative decrease from the control value, in per cent. `CCCCOc1c2cc(C(=O)Nc3cc4cc(c3)C(=O)NCC(=O)N[C@@H](CC(=O)O)C(=O)NCC(=O)N[C@@H](Cc3ccc(O)cc3)C(=O)NC4)cc1Cc1cc(C(=O)Nc3cc4cc(c3)C(=O)NCC(=O)N[C@@H](CC(=O)O)C(=O)NCC(=O)N[C@@H](Cc3ccc(O)cc3)C(=O)NC4)cc(c1OCCCC)Cc1cc(C(=O)Nc3cc4cc(c3)C(=O)NCC(=O)N[C@@H](CC(=O)O)C(=O)NCC(=O)N[C@@H](Cc3ccc(O)cc3)C(=O)NC4)cc(c1OCCCC)Cc1cc(C(=O)Nc3cc4cc(c3)C(=O)NCC(=O)N[C@@H](CC(=O)O)C(=O)NCC(=O)N[C@@H](Cc3ccc(O)cc3)C(=O)NC4)cc(c1OCCCC)C2` [GFB-111]: half-maximal inhibition in experiment [1] (IC50) required 6.5 µM. For the same compound, the “Binding to IGF-1” value in experiment [2] was “does not bind”. In [3], the “% Inhibition at 100 μM IGF1R-Y-P” value is recorded as −12.4%. Also, the “HRGβ-activation of Erk1/Erk2” value in [4] is on record as “minimally affected”. The “Microvessel count (Mean ± SD) 250X” value is reported as 7.20 ± 2.52 in experiment [5] (DaOY tumor, 50 mpk); 7.73 ± 2.61 in experiment [6] (100 mpk); 5.13 ± 3.10 in experiment [6] (200 mpk). Also, the “Microvessel count (Mean ± SD) 400X” value was determined as 4.80 ± 1.37 in [5] (DaOY tumor, 50 mpk); 5.20 ± 1.71 in experiment [6] (100 mpk); 3.07 ± 1.94 in experiment [6] (200 mpk). Also, the “Inhibition of angiogenesis” value in experiment [5] (DaOY tumors) is listed as “no effect”; in [6] (U87MG tumors), “strongly”. The “% Tumor growth inhibition” value in the experiment on rat glioma C6 (C6, 50 mpk, day in parentheses in cell) was 54% (15) and 64% (15) and 46% (18). Also, the “Inhibition of C6 tumor growth in nude mice” value in the experiment on rat glioma C6 (mouse, in vivo) is “effective”. Also, the “Effect on [125I]-IGF-1 binding” value at IGF-1 is on record as “lack of significant effects”. Besides, the “Factor VIII immunostaining in tumors” value in [6] (U87MG, day 32, 50, 100 and 200 mg per kg) was “decreased in a dose-dependent manner”. Moreover, the “Effect on EGF-stimulated EGFR tyrosine phosphorylation and Erk1/Erk2 activation” value in experiment [7] was “does not affect”. The “Effect on [125I]-EGF binding” value on EGF is “lack of significant effects”. The “bFGF-activation of Erk1/Erk2” value in experiment [8] is reported as “minimally affected”.
